Results as given in patent US20160008333A1, “PROPHYLACTIC OR THERAPEUTIC AGENT FOR POSTERIOR OCULAR DISEASE CONTAINING TETRAHYDROPYRANYLAMINOCYCLOPENTYLCARBONYLTETRAHYDROPYRIDOPYRIDINE DERIVATIVE AS EFFECTIVE INGREDIENT” (SANTEN PHARMACEUTICAL CO., LTD., priority 2013, published 2016).

What was measured:
Type in all cases: in vivo
[1] = system: choroidal neovascularization; assay: Krypton laser-induced rat choroidal neovascularization model (fluorescein fundus angiography); conditions: evaluated 7th day after photocoagulation
Method: By using a laser-induced rat choroidal neovascularization model (Invest. Ophthalmol. Vis. Sci., 40(2), 459-466 (1999)), usefulness of the compounds of the present invention was evaluated.
A rat was intramuscularly administered 1 ml/kg of a mixed solution (7:1) comprising a 5% (W/V) ketamine hydrochloride injection solution and a 2% xylazine hydrochloride injection solution to perform general anesthesia, and after a 0.5% (W/V) tropicamide-0.5% phenylephrine hydrochloride eye drop was dropped into eyes to perform mydriasis, photocoagulation was carried out by a krypton laser photocoagulation apparatus. The photocoagulation was carried out at the posterior part of eye ground, while avoiding thick retinal blood vessels, by focusing on the deep retina with eight spots per an eye in a scattered state (coagulation conditions: spot size 100 μm, output 100 mW, coagulation time 0.1 second). After the photocoagulation, the ocular fundus was photographed to confirm laser irradiated sites.
Compound A was mixed with a 1% (W/V) methyl cellulose solution (prepared by dissolving methyl cellulose in purified water) so that it became 0.4, 1.2, 4 and 12 mg/ml, and an administration solution containing Compound A was orally administered twice a day for 7 days from the surgery day including the surgery day of the photocoagulation with a dose of 2, 6, 20 and 60 mg/kg. Incidentally, to the base administered group was similarly administered a 1% (W/V) methyl cellulose solution.
At the 7th day after the photocoagulation, a rat was intramuscularly administered 1 ml/kg of a mixed solution (7:1) comprising a 5% (W/V) ketamine hydrochloride injection solution and a 2% xylazine hydrochloride injection solution to perform general anesthesia, and a 0.5% (W/V) tropicamide-0.5% phenylephrine hydrochloride eye drop was dropped into eyes to perform mydriasis, 0.1 ml of a 10% fluorescein solution was injected into a vein of penis to carry out fluorescein fundus angiography. A spot from which no leakage of fluorescence was admitted by the fluorescein fundus angiography was judged as negative (no neovascularization), and a spot from which leakage of fluorescence was admitted was judged as positive. In addition, when the photocoagulation portions from which a slight leakage of fluorescence was admitted were present two portions, it was judged as positive (neovascularization exists). Thereafter, according to Numerical formula 1, a rate of incidence of choroidal neovascularization (%) was calculated from a number of positive spot(s) to the eight spots to which the laser was irradiated, and a suppressing rate (%) of the evaluated drug was calculated in accordance with Numerical formula 2. Incidentally, a number of the samples of each administered group is 7 or 8. […]

[2] = system: thrombin-induced retinal vascular hyperpermeability; assay: Rat model of thrombin-induced retinal vascular hyperpermeability (vitreous protein concentration)
[3] = system: TNFα-induced retinal vascular hyperpermeability; assay: Rat model of TNFα-induced retinal vascular hyperpermeability, oral administration
Description: TNFα is a cytokine which has been reported to increase its expression in proliferative diabetic retinopathy or at the vitreous body of retinal vein occlusion (Eye 2006; 20: 1366-1369, Jpn. J. Ophthalmol. 2011; 55: 256-63), and in a streptozocin-induced diabetes model, it has been reported that it participates in onset and progress of diabetic retinopathy through permeability enhancement or histopathological alteration of retinal vessel (Mol. Vis. 2009; 15: 1418-1428). Thus, by using a rat model of TNFα-induced retinal vascular hyperpermeability, usefulness of Compound A, the diastereomer I of Compound A and the diastereomer II of Compound A were evaluated.
A rat was intramuscularly administered 1 ml/kg of a mixed solution (7:1) comprising a 5% (W/V) ketamine hydrochloride injection solution and a 2% xylazine hydrochloride injection solution to perform general anesthesia, and a 0.5% (W/V) tropicamide-0.5% phenylephrine hydrochloride eye drop was dropped into eyes to perform mydriasis. Thereafter, 5 μL of TNFα (10 μg/ml) was injected into the vitreous body by using a 32G needle so as not to damage the crystalline lens and the retina. A rat of normal group was administered PBS (phosphate buffer) in place of the TNFα.
Compound A was dissolved in a 1% (W/V) methyl cellulose solution (prepared by dissolving methyl cellulose in purified water) so that it became 2 and 20 mg/ml to prepare a Compound A solution. The Compound A solution was orally administered with a dose of 10 and 100 mg/kg at 30 minutes before, 6 and 20 hours after administration of TNFα in the vitreous body. The diastereomer I of Compound A and the diastereomer II of Compound A were also similarly prepared and administered. Incidentally, the base administered group was similarly administered a 1% (W/V) methyl cellulose solution.
In addition, RS-504393 which is a CCR2 receptor antagonist was used those purchased from Tocris Bioscience Inc., and orally administered in the same manner with a dose of 3 and 30 mg/kg.
After 24 hours from administration of TNFα in the vitreous body, the rat was euthanized by exsanguination, and then, the eyeballs of the rat were excised so as not to mix with a blood. After extraction of the eyeballs, the vitreous body was rapidly collected by making a tiny cut at around the optic papilla using a surgical scalpel. The collected vitreous body was optionally diluted by purified water, and the protein concentration was measured by the Bradford method. The protein concentration of the vitreous body thus measured was used as an index of the retinal vascular permeability. Thereafter, according to Numerical formula 4, a suppressing rate (%) of the evaluated drug against the retinal vascular hyperpermeability caused by TNFα was calculated. […]

[4] = system: TNFα-induced retinal vascular hyperpermeability; assay: Rat model of TNFα-induced retinal vascular hyperpermeability, intravitreal administration; conditions: 100 μg/eye intravitreally immediately after intravitreal TNFα; vitreous protein at 24 h
Method: To investigate an effectiveness of Compound A by topical administration, the effect of intravitreal administration of Compound A on a rat model of TNFα-induced retinal vascular hyperpermeability was investigated. A model was prepared in the same manner as in Pharmacological test 3. Compound A was dissolved in a mixed solution of dimethylsulfoxide and PLA0020 with a ratio of 4: 1 so that it became 40 mg/ml to prepare a solution of Compound A. Immediately after intravitreal administration of TNFα, the solution of Compound A was intravitreally administered with a dose of 100 μg/eyes. Incidentally, to the base administered group, a mixed solution of dimethylsulfoxide and PLA0020 with a ratio of 4:1 was similarly administered. After 24 hours from intravitreal administration of TNFα, the rat was euthanized by exsanguination, and then, the eyeballs of the rat were excised so as not to mix with a blood. […] The collected vitreous body was optionally diluted by purified water, and the protein concentration was measured by the Bradford method. The protein concentration of the vitreous body thus measured was used as an index of the retinal vascular permeability. Thereafter, according to Numerical formula 4, a suppressing rate (%) of the evaluated drug against the retinal vascular hyperpermeability caused by TNFα was calculated. […]

[5] = 10 mg/kg intraperitoneally, vitreous protein 24 h after intravitreal thrombin

COC1COCCC1N[C@@H]1CC[C@@](C(=O)N2CCc3ncc(C(F)(F)F)cc3C2)(C(C)C)C1.O=C(O)CCC(=O)O (stereo partly drawn) [Compound A]
Suppressing rate (%) of incidence of choroidal neovascularization ([1]; 2 mg/kg orally twice a day for 7 days): 32.8% | Suppressing rate (%) of incidence of choroidal neovascularization ([1]; 6 mg/kg orally twice a day for 7 days): 39.5% | Suppressing rate (%) of incidence of choroidal neovascularization ([1]; 20 mg/kg orally twice a day for 7 days): 52.9% | Suppressing rate (%) of incidence of choroidal neovascularization ([1]; 60 mg/kg orally twice a day for 7 days): 62.7% | Retinal vascular permeability suppressing rate (%) ([2]; 6 mg/kg orally at 30 min before, 6 and 20 h after intravitreal thrombin, vitreous protein at 24 h): 15% | Retinal vascular permeability suppressing rate (%) ([3]; 10 mg/kg orally at 30 min before, 6 and 20 h after intravitreal TNFα, vitreous protein at 24 h): 63% | Retinal vascular permeability suppressing rate (%) ([3]; 100 mg/kg orally at 30 min before, 6 and 20 h after intravitreal TNFα, vitreous protein at 24 h): 88% | Retinal vascular permeability suppressing rate (%) [4]: 61%

C[N+](C)(Cc1ccc(NC(=O)c2ccc(Cl)c(Cl)c2)cc1)C1CCOCC1.[Cl-] [Compound B, N-[4-(3,4-dichlorobenzamido)benzyl]-N,N-dimethyl-N-(tetrahydropyran-4-yl)ammonium chloride]
Retinal vascular permeability suppressing rate (%) [2, 5]: −13%

O=C(/C=C/c1cc(F)cc(F)c1)N1CCC([C@@H](CO)N2CCC(c3c[nH]c4ncccc34)CC2)CC1 [Compound C, 2(S)-[1-[3-(3,5-difluorophenyl)-2(E)-propenoyl]piperidin-4-yl]-2-[4-(1H-pyrrolo[2,3-b]pyridin-3-yl)piperidin-1-yl]ethanol]
Retinal vascular permeability suppressing rate (%) [2, 5]: −1%

Cc1ccc2c(c1)C1(CCN(CCc3nc(-c4ccccc4)oc3C)CC1)OC(=O)N2 [RS-504393, reference compound]
Retinal vascular permeability suppressing rate (%) ([3]; 3 mg/kg orally, vitreous protein 24 h after intravitreal TNFα): 18% | Retinal vascular permeability suppressing rate (%) ([3]; 30 mg/kg orally, vitreous protein 24 h after intravitreal TNFα): −13%
